We go through five compounds from publication PMC12169104, “Towards the development of supramolecular self-associating amphiphiles as antibiofilm agents against Pseudomonas aeruginosa and Candida albicans biofilms” (Journal of Materials Chemistry. B, 2025).

One may read the EC50 as the concentration giving half of the maximal effect.

Several values for one entry are separate records, joined by “and”; a condition that tells them apart may be missing. Equal entries are not always repeated. Marks after values point to notes of the source that are not given here.

Experiment [1] can be described thus: Membrane permeability and adhesion assay (1H CPMG NMR; PF and MAF). As to conditions: SSA anion(s), 200 μM, 298 K; for MAF (membrane adhesion factor): error ±0.05 unless stated, MAF < 1 suggests adhesion; for PF (membrane permeation factor): error ±0.1 unless stated, PF > 1 suggests permeable. The text has this:
Finally, in line with our previous work, we moved to characterise the membrane adhesion and permeation events of 1–5 and co-formulations a–j with PE : PG 1 : 1 synthetic phospholipid vesicles.[53] This vesicle composition was prioritised for further analysis as this composition acts as a model for an AMR resistant strain of the ESKAPE pathogen P. aeruginosa,[54,55] categorised as high priority by the WHO.[33] As summarised in Table 4, membrane permeation (PF) and membrane adhesion factors (MAF) for the SSA anionic components were calculated through the use of ^1H CPMG NMR spectroscopy experiments, using vesicles produced by extrusion through a 1000 nm polycarbonate membrane.
Here the lower the MAF, the stronger the adhesion of the molecule to the surface of the phospholipid membrane. […] A PF value of 1 or above provides evidence of SSA permeation. The greater this value above 1, the greater the membrane permeation potential of a compound. […]
Membrane permeability and adhesion assay, determining membrane adhesion factors (MAF) and permeation factors (PF): Lipid vesicles of DOPE and PG, in a 1:1 ratio by weight were prepared as described in ‘preparation of vesicles’ with one alteration. Here vesicles were extruded 21 times through a 1000 nm polycarbonate membrane. NMR samples were prepared containing: SSA ( 200 µM), 95% HEPES buffer (HEPES (10 mM), NaCl (10 mM)) and 5% D 2O, and sodium trimethylsilylpropanesulfonate - DSS (1 µM). In order to calculate the PF and MAF the paramagnetic relaxation enhancement agent (PRE), gadodiamide (1 mM) was added to the NMR mixture. Where lipid vesicles were present in the NMR mixture, vesi cles were added at a concentration of 0.1 mg/mL.
All 1H CPMG NMR spectra were collected with a spin -lock time of 150 mS on a Bruker Avance III spectrometer equipped with a cold probe at a proton frequency of 600 MHz and recorded at 298 K.
Peak intensities were measured using MestReNova (Mestrelab Research). The MAF and PF were determined using previously published method. 3 For individual SSAs, MAF and PF were calculated using all aromatic CH resonances. For SSA co -formulations an average MAF and PF were calculated using all aromatic CH resonances. For individual components of the SSA co -formulations, the resonances for the different SSA anions were treated independently of one another.

A short description of experiment [2]: Calcein loaded vesicle leakage (lysis) assay. The settings on record: 298 K, PBS buffer 5% EtOH. On the procedure:
To gauge the activity and selectivity of 1–5 and a–j against microbial membranes, a series of synthetic model vesicle systems were prepared, containing a variety of common bacterial membrane phospholipid headgroups: (i) phosphatidylglycerol (PG) only; (ii) phosphatidylethanolamine (PE) : PG 3 : 1 and; (iii) PE : PG 1 : 1.[50] Following our previous work in this area, we first quantified the ability of 1–5 and co-formulations a–j to lyse the aforementioned synthetic model phospholipid vesicle systems.[49] […] Here the fluorescent dye calcein was loaded into synthetic vesicles at a concentration where the dye self-quenches (70 mM). When the vesicle is lysed, the calcein is released to the extravesicular solution, effectively reducing calcein concentration to a point where the dye no longer undergoes self-quenching. Through comparison to a positive control experiment, in which 100% vesicle lysis was achieved through the addition of 2% X-100 Triton, the proportion of vesicles to undergo lysis in the presence or absence of SSA can be calculated. The data was then fitted to the Hill or linear equation to determine the effective concentration of SSA needed to lyse 50% of the vesicles present in solution (EC50) (Section S14, ESI ^†).[51] […]
Preparation of vesicles: All lipids were purchased as powder stocks from Avanti Polar Lipids. Lipid vesicles were prepared according to standard procedures. Each phospholipid (~ 20 mg) was dissolved in chloroform: methanol 3:1 (~ 10 mL) and the solvent was removed under reduced pressure. The thin film of dried lipid was further dried in vacuo overnight. Lipid films were resuspended in the desired buffer and subjected to 10 freeze-thaw cycles in liquid nitrogen and extruded 19 times through a 200 nm polycarbonate membrane.
Preparation of calcein loaded vesicles:2 Lipid films were resuspended in calcein dye (70 mg calcein, 865 µL deionized H2O, 135 µL NaOH (2 M), with NaOH added dropwise until calcein dissolved) and subjected to 10 freeze-thaw cycles in liquid nitrogen and extruded 19 times through a 200 nm polycarbonate membrane. The suspension was run down a size exclusion column packed with sephadex G-50 using 1 X PBS. The hydrodynamic dimeter of the lipids was monitored using an Anton Paar LitesizerTM 500 to ensure the separation of free and entrapped calcein. Phospholipid concentration was adjusted to 60 µM for vesicle leakage experiments.
Vesicle leakage assay: Black bottom 96-well plates were prepared by serially diluting desired SSA in a EtOH: H2O 1:19 solution across the plate, the appropriate lipid solution (100 µL, 60 µM) was added to each well to give a total well volume of 200 µL. A solution of 2 % Triton X-100 was used for a 100 % lysis control and a EtOH: H2O 1:19 solution was used as a 0 % lysis control. Fluorescent measurements were taken at 25 °C using an excitation value of 495 nm and an optimised gain of 800. Data were acquired in endpoint mode. […]
For fluorescent labelling, the desired vesicles were pre-incubated with DPH (10 µM) at 60 °C for 1 hour.
Membrane fluidity assay: Black bottom 96-well plates were prepared by serially diluting desired SSA in a EtOH: H2O 1:19 solution across the plate, the appropriate DPH labelled vesicles (100 µL, 60 µM) were added to each well to give a total well volume of 200 µL. FP measurements were taken at 25 °C using a 355 nm filter for excitation and a 430 m for emission. […]
Figure S168 – Average (n=3) […] readings of calcein loaded PE:PG 3:1 lipid vesicles (λem = 515 nm) following the addition of j at varying concentrations. Lysis value is triton (1 %). Blue = 1 minute, purple = 5 minutes, pink = 10 minutes, orange = 15 minutes, red = 20 minutes. Error = standard […]
Section S14: Determination of vesicle lysis EC50 values
Data was originally fitted to the Hill equation using origin software. If the fitting of these vesicle lysis data to the Hill equation failed then the data were fitted to a linear line of best fit to estimate EC50 […]
above 0.1 mM. […]

[3] abbreviates: PE:PG 1:1 vesicles, 1 min (Timepoint 1 in Table S14).
The mark [4] stands for this setting: PE:PG 1:1 vesicles, 5 min (Timepoint 2 in Table S14).
Setting [5] is: PE:PG 1:1 vesicles, 10 min (Timepoint 3 in Table S14).
[6] abbreviates: PE:PG 1:1 vesicles, 15 min (Timepoint 4 in Table S14).
Setting [7] is: PE:PG 1:1 vesicles, 20 min (Timepoint 5 in Table S14).
Setting [8] is: PE:PG 3:1 vesicles, 1 min (Timepoint 1 in Table S13).
The mark [9] stands for this setting: PE:PG 3:1 vesicles, 5 min (Timepoint 2 in Table S13).
Setting [10] is: PE:PG 3:1 vesicles, 10 min (Timepoint 3 in Table S13).
The mark [11] stands for this setting: PE:PG 3:1 vesicles, 15 min (Timepoint 4 in Table S13).
Where [12] appears, read: PE:PG 3:1 vesicles, 20 min (Timepoint 5 in Table S13).
Setting [13] is: PG vesicles, 1 min (Timepoint 1 in Table S12), total molar concentration.
The mark [14] stands for this setting: PG vesicles, 5 min (Timepoint 2 in Table S12).
Setting [15] is: PG vesicles, 10 min (Timepoint 3 in Table S12).
[16] abbreviates: PG vesicles, 15 min (Timepoint 4 in Table S12).
Where [17] appears, read: PG vesicles, 20 min (Timepoint 5 in Table S12).

Take `O=S(=O)(O)CCCNC(=S)Nc1ccc(C(F)(F)F)cc1` [SSA 1]: the “MAF (membrane adhesion factor)” value in experiment [1] is listed as 0.94. Also, the “PF (membrane permeation factor)” value in experiment [1] worked out at 1.01. Also, the EC50 in experiment [2] (setting [3]) was 0.055 mM and 0.0549 mM; in experiment [2] (setting [4]) it was 0.01 mM and 0.0095 mM; in experiment [2] (setting [5]), 0.0048 mM; in experiment [2] (setting [6]) it was 0.002 mM; in experiment [2] (setting [7]) it was 0.002 mM and 0.0015 mM; in experiment [2] (setting [8]), 0.0302 mM. The EC50 was 0.009 mM in experiment [2] (setting [9]); 0.004 mM in experiment [2] (setting [10]); 0.002 mM and 0.0022 mM in experiment [2] (setting [11]); 0.002 mM and 0.0017 mM in experiment [2] (setting [12]); 0.0677 mM in experiment [2] (setting [13]); 0.032 mM in experiment [2] (setting [14]). Also, the EC50 was 0.0156 mM in experiment [2] (setting [15]), 0.0062 mM in experiment [2] (setting [16]) and 0.0037 mM in experiment [2] (setting [17]).

Consider `Cc1ccc2nc(-c3ccc(NC(=O)NCS(=O)(=O)O)cc3)sc2c1` [SSA 3], for which the “MAF (membrane adhesion factor)” value in experiment [1] is 0.00. For the same compound, the “PF (membrane permeation factor)” value in experiment [1] came to 0.00. Also, the EC50 in experiment [2] (setting [3]) is greater than 1.5 mM; in experiment [2] (setting [4]) it was greater than 1.5 mM; in experiment [2] (setting [5]), 1.33 mM; in experiment [2] (setting [6]), 0.953 mM; in experiment [2] (setting [7]), 0.829 mM; in experiment [2] (setting [8]), greater than 1.5 mM. The EC50 in experiment [2] (setting [9]) is greater than 1.5 mM; in experiment [2] (setting [10]), greater than 1.5 mM; in experiment [2] (setting [11]), greater than 1.5 mM; in experiment [2] (setting [12]), greater than 1.5 mM; in experiment [2] (setting [13]), 0.867 mM; in experiment [2] (setting [14]), 0.615 mM. The concentration for a half-maximal effect (EC50) is 0.529 mM in experiment [2] (setting [15]), 0.15 mM in experiment [2] (setting [16]) and 0.17 mM in experiment [2] (setting [17]).

As for `O=C(O)CNc1c(Nc2ccc(C(F)(F)F)cc2)c(=O)c1=O` [SSA 5], the “MAF (membrane adhesion factor)” value in experiment [1] worked out at 0.38. Besides, the “PF (membrane permeation factor)” value in experiment [1] is listed as 0.67. The EC50 in experiment [2] (setting [3]) is greater than 1.5 mM; in experiment [2] (setting [4]), 0.302 mM; in experiment [2] (setting [5]), 0.129 mM; in experiment [2] (setting [6]), 0.1 mM; in experiment [2] (setting [7]), 0.234 mM; in experiment [2] (setting [8]), greater than 1.5 mM. In addition, the EC50 in experiment [2] (setting [9]) is greater than 1.5 mM; in experiment [2] (setting [10]), 0.683 mM; in experiment [2] (setting [11]) it was 0.54 mM; in experiment [2] (setting [12]), 0.429 mM; in experiment [2] (setting [13]), greater than 1.5 mM; in experiment [2] (setting [14]), 0.641 mM. For the same compound, the EC50 in experiment [2] (setting [15]) is 0.13 mM; in experiment [2] (setting [16]) it was 0.088 mM; in experiment [2] (setting [17]), 0.061 mM.

For the compound `O=C(O)CNC(=S)Nc1ccc(C(F)(F)F)cc1` [SSA 2], the “MAF (membrane adhesion factor)” value in experiment [1] was found to be 0.88. In experiment [1], the “PF (membrane permeation factor)” value came out at 0.85. Moreover, the EC50 in experiment [2] (setting [3]) is greater than 1.5 mM; in experiment [2] (setting [4]), 1.43 mM; in experiment [2] (setting [5]) it was 0.83 mM; in experiment [2] (setting [6]) it was 0.661 mM; in experiment [2] (setting [7]) it was 0.585 mM; in experiment [2] (setting [8]), greater than 1.5 mM. Also, the EC50 was greater than 1.5 mM in experiment [2] (setting [9]); greater than 1.5 mM in experiment [2] (setting [10]); greater than 1.5 mM in experiment [2] (setting [11]); 1.15 mM in experiment [2] (setting [12]); greater than 1.5 mM in experiment [2] (setting [13]); 1.14 mM in experiment [2] (setting [14]). Besides, the values for the EC50 in experiment [2] (setting [15]), in experiment [2] (setting [16]) and in experiment [2] (setting [17]) were 0.727 mM, 0.563 mM and 0.49 mM, respectively.

Take `O=c1c(NCCCS(=O)(=O)O)c(Nc2ccc(C(F)(F)F)cc2)c1=O` [SSA 4]: in experiment [1], the “MAF (membrane adhesion factor)” value is given as 0.38. Besides, in experiment [1], the “PF (membrane permeation factor)” value is 1.48 ^a. Moreover, the EC50 in experiment [2] (setting [3]) was greater than 1.5 mM; in experiment [2] (setting [4]), greater than 1.5 mM; in experiment [2] (setting [5]) it was 0.948 mM; in experiment [2] (setting [6]) it was 0.675 mM; in experiment [2] (setting [7]), 0.574 mM; in experiment [2] (setting [8]), greater than 1.5 mM. Moreover, the EC50 was greater than 1.5 mM in experiment [2] (setting [9]); 1.18 mM in experiment [2] (setting [10]); 0.95 mM in experiment [2] (setting [11]); 0.91 mM in experiment [2] (setting [12]); 1.02 mM in experiment [2] (setting [13]); 0.396 mM in experiment [2] (setting [14]). The results for the EC50 in experiment [2] (setting [15]), in experiment [2] (setting [16]) and in experiment [2] (setting [17]) were 0.341 mM, 0.288 mM and 0.218 mM, respectively.
